In patent US20130022649A1, “SNALP FORMULATIONS CONTAINING ANTIOXIDANTS” (Protiva Biotherapeutics, Inc., priority 2009, published 2013):

Test: Lipid content and purity by reverse phase HPLC (Example 3 Study 3)
Format: physicochemical
Conditions: in 20 mM citrate 1:57 SNALP formulation
Description: Samples were removed after 2 weeks of storage at room temperature (RT) or 40° C. (accelerated conditions). Samples were analyzed for particle size, encapsulation efficiency, lipid content and purity, and siRNA content and purity. Particle size measurements were obtained using a Malvern Zetasizer instrument and encapsulation efficiency was determined using a RiboGreen fluorometric assay. Lipid content and purity were analyzed by reverse phase HPLC. siRNA content and purity were analyzed by denaturing anion-exchange HPLC (DENAX).
Reverse phase HPLC analysis was performed to assess the level of lipid degradation. The results are shown Tables 23-25. […] The formulations containing EDTA or EDTA combined with additional antioxidants had no significant change in lipid content at either storage temperature. The same trends in lipid stability were observed regardless of which cationic lipid was present in the formulation.

SMILES: CCCCC/C=C\C/C=C\CCCCCCCCC(CCCCCCCC/C=C\C/C=C\CCCCC)OCCCCN(C)C [MC4 Ether, 4-((6Z,9Z,28Z,31Z)-heptatriaconta-6,9,28,31-tetraen-19-yloxy)-N,N-dimethylbutan-1-amine]
- cationic lipid content before the drop: about 58 mol %
- cationic lipid content after storage (2 weeks at 40° C.): about 52 mol %
